#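 All cell lines were grown in 96-well plates and treated with compound for 48 hours. Abbreviation: GI50, concentration required for 50% inhibition of growth.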 Active and inactive are the calls of the source. No stated cut-off is given here; in the data, active = GI50 up to about 1.1 µM and inactive = higher. Starred links: 1 amine or outer side, 2 acyl side, 3 side chain; linkers in the order of their positions; H or OH if unused. Positions of bridges follow the written chain, without caps; N, C: chain ends. Non-standard residues stand in square brackets, D forms with d. Residues, ends and D or L forms follow the SMILES beside them. Chains are numbered I, II in the order given. Actinocin(1to9) = Cc1c2oc3c(C)ccc(C(=O)[*:2])c3nc-2c(C(=O)[*:1])c(N)c1=O; NMeV = CN[CH](C(=O)O)C(C)C; Sar = CNCC(=O)O
# Assays:
# Experiment in all cases: NCI anticancer screen, dose series, 48 h
# [1] = tested on: BT-549
# [2] = tested on: M19-MEL
# [3] = tested on: LXFL 529
# [4] = tested on: SNB-78
# [5] = tested on: DMS-114
# [6] = tested on: DMS-273
# [7] = tested on: KM-20L2
# [8] = tested on: XF498
Structure (SMILES),GI50 [1],further results
CC1=C(Cl)C[C@@H](/C(C)=C\Cl)O[C@@]1(O)C(Br)Br,28.4 µM (inactive),–
CC(=O)Nc1ccc(C(=O)NN2C(=O)CSC2c2ccccc2)cc1 (configuration not stated),34.5 µM (inactive),–
O=NN1C(c2ccccc2)CC(=NO)CC1c1ccccc1 (configuration not stated),> 100 µM (inactive),–
S=C1SCN(Cc2ccco2)CN1c1ccc(Br)cc1,16.7 µM (inactive),–
Cc1cc(C)nc(NS(=O)(=O)c2ccc(NC(=O)c3ccc4nc5ccccc5c(Nc5ccc(S(=O)(=O)N=C(N)N)cc5)c4c3)cc2)n1,> 100 µM (inactive),–
COc1c(C(CC(C)C)OC(C)=O)ccc2c1C(=O)OCc1cc(C)cc(O)c1O2 (configuration not stated),16.2 µM (inactive),–
COC(=O)CCC(=O)CC(=O)C(=O)Nc1ccc(F)cc1,–,GI50 [2]: > 100 µM (inactive); GI50 [3]: > 100 µM (inactive); GI50 [4]: > 100 µM (inactive); GI50 [5]: > 100 µM (inactive); GI50 [6]: > 100 µM (inactive); GI50 [7]: > 100 µM (inactive)
O=C(NC(=S)Nc1ccc2c(c1)Sc1ccccc1O2)c1ccccc1,29.6 µM (inactive),–
CN1CSC(=S)N(c2c3ccccc3nc3ccc(Br)cc23)C1,15.4 µM (inactive),–
COC(=O)C1=C(O)C(C(=O)OC)[C@]2(O)[C@H](C(=O)OC)[C@H]1C[C@@H](c1ccccc1OC)[C@H]2C(=O)OC (some centres not stated),3.15 µM (inactive),–
O=C(O)c1cc2c3ccccc3nc-2c[nH]1,–,GI50 [2]: > 100 µM (inactive); GI50 [3]: > 100 µM (inactive); GI50 [4]: > 100 µM (inactive); GI50 [5]: > 100 µM (inactive); GI50 [6]: > 100 µM (inactive); GI50 [7]: > 100 µM (inactive)
Oc1nc2ccccc2c(O)c1Cc1ccccc1,> 100 µM (inactive),–
COC1=C(OC)C(=O)C(C/C=C/c2c(Cl)nc3sccn23)=C(C)C1=O,15 µM (inactive),–
O1C2C1C1OC1C1OC1C1OC21 (configuration not stated),> 100 µM (inactive),–
CC(C)COC(=O)OC(=O)c1ccc(N(C)Cc2cnc3nc(N)nc(N)c3n2)cc1,20.9 µM (inactive),–
CN1CN(c2ccccc2)C2(CCN(C(=O)OC(C)(C)C)CC2)C1=O,> 100 µM (inactive),–
CCOC(=O)NNC1(SC)NC(=O)c2c(cc(Cl)oc2=O)O1 (configuration not stated),4.37 µM (inactive),–

Structure (SMILES),GI50 [1],further results
C=C(CCOC)CCC1CCCCC(=C)C1=O (configuration not stated),> 100 µM (inactive),–
COC(=O)[C@H](Cc1ccccc1)NC(=O)N(CCC#N)CCN(C(=O)N[C@@H](Cc1ccccc1)C(=O)OC)c1ccccc1,49.3 µM (inactive),–
COc1ccc(CC2c3cc(OC)c(OC)c(OC)c3CC[N+]2(C)C)cc1Oc1ccc(CC2c3cc4c(c(OC)c3CCN2C)OCO4)cc1 (configuration not stated),> 100 µM (inactive),–
Nc1cccc(CCN2CCN(CCCc3ccccc3)CC2)c1,52.5 µM (inactive),–
"CCC(C)C1NC(=O)C(NC(=O)c2c3nc4c(C(=O)NC5C(=O)NC(C(C)CC)C(=O)N6CCCC6C(=O)N(C)CC(=O)N(C)C(C(C)C)C(=O)OC5C)ccc(C)c4oc-3c(C)c(=O)c2N)C(C)OC(=O)C(C(C)C)N(C)C(=O)CN(C)C(=O)C2CCCN2C1=O (configuration not stated) (I: TIP[Sar][NMeV] / II: TIP[Sar][NMeV]; ester I:1-I:C, II:1-II:C; linker I:N-II:N via Actinocin(1to9); configuration not given here)",0.0105 µM (active),–
[N-]=[N+]=NC1=C(c2ccccn2)C(=O)c2cccc3cccc1c23,27.3 µM (inactive),–
CCOC(=O)C1=C(C)N(c2ccc(Cl)cc2)C2(O)C=CC(O)=C3C(=O)c4ccccc4C(=O)C312 (configuration not stated),10.6 µM (inactive),–
CN1C(=O)C(C(N)=O)C2CC1(C)Oc1ccccc12 (configuration not stated),> 100 µM (inactive),–
O=C(NCc1ccccc1)c1cc2ccccc2o/c1=N\c1cccc(C(F)(F)F)c1,> 100 µM (inactive),–
O=C(OCc1ccccc1)N1c2cc([N+](=O)[O-])ccc2C(=O)N2CCC[C@H]2C1O (some centres not stated),> 100 µM (inactive),–
Cc1c(C)n(COCCO)c2ncnc(N)c12,–,GI50 [2]: > 100 µM (inactive); GI50 [3]: > 100 µM (inactive); GI50 [8]: > 100 µM (inactive); GI50 [6]: > 100 µM (inactive); GI50 [7]: > 100 µM (inactive)
Nc1ccn(CCCC(c2ccccc2)P(=O)(O)O)c(=O)n1 (configuration not stated),–,GI50 [2]: > 100 µM (inactive); GI50 [3]: > 100 µM (inactive); GI50 [4]: > 100 µM (inactive); GI50 [5]: > 100 µM (inactive); GI50 [6]: > 100 µM (inactive); GI50 [7]: > 100 µM (inactive)
Oc1ccc(C[C@@H]2CN[C@H](Cc3ccc(O)c(Br)c3)CN2)cc1,> 100 µM (inactive),–
NC1c2c(Cl)sc(Cl)c2C(=O)C1O (configuration not stated),15.6 µM (inactive),–
CCCCCCCCCC1CC(=O)NCC(=O)NC(C(C)C)C(=O)NC(CC(C)C)C(=O)NC(C)C(=O)NC(C(C)C)C(=O)O1 (configuration not stated),11.4 µM (inactive),–
O=C1CC(n2cccc2)c2c(Br)sc(Br)c21 (configuration not stated),18.6 µM (inactive),–

# — ChEMBL document CHEMBL1201862, “PubChem BioAssay data set” (2004)
